Test results taken from PubChem BioAssay (NCI).
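Growth conditions: 96-well plates. Treatment: test compound, 48 hours, 5 concentrations. Analysis: linear interpolation between bracketing concentrations; unreached endpoints set to highest concentration. The concentration for 50% growth inhibition is given as GI50. Definition used: TGI = concentration required for complete inhibition of growth.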

Tests used:
Assay in all cases: growth of human tumour cells (NCI), 48 h
ACHN renal = tested on: ACHN renal
HOP-62 NSCLC = tested on: HOP-62 NSCLC
SK-MEL-2 melanoma = tested on: SK-MEL-2 melanoma
COLO 205 colon = tested on: COLO 205 colon
SK-MEL-5 melanoma = tested on: SK-MEL-5 melanoma
NCI-H522 lung = tested on: NCI-H522 lung
HS 578T breast = tested on: HS 578T breast
SNB-19 CNS = tested on: SNB-19 CNS
PC-3 prostate = tested on: PC-3 prostate
786-0 renal = tested on: 786-0 renal

| SMILES | TGI (ACHN renal) | TGI (HOP-62 NSCLC) | TGI (SK-MEL-2 melanoma) | TGI (COLO 205 colon) | TGI (SK-MEL-5 melanoma) | TGI (NCI-H522 lung) | TGI (HS 578T breast) | TGI (SNB-19 CNS) | TGI (PC-3 prostate) | TGI (786-0 renal) | GI50 (ACHN renal) | GI50 (HS 578T breast) | GI50 (SK-MEL-2 melanoma) | GI50 (SK-MEL-5 melanoma) | GI50 (NCI-H522 lung) | GI50 (SNB-19 CNS) | GI50 (HOP-62 NSCLC) | GI50 (COLO 205 colon) |
| --- | --- | --- | --- | --- | --- | --- | --- | --- | --- | --- | --- | --- | --- | --- | --- | --- | --- | --- |
| C#CCN1C(=O)CN2C(Cl)(Cl)C2(c2ccccc2)c2cc(Cl)ccc21 (stereo not drawn) | > 100 µM | > 100 µM | > 100 µM | > 100 µM | > 100 µM | 75.2 µM | – | – | – | – | – | – | – | – | – | – | – | – |
| CSCCC(NOC(=O)Cc1ccccc1)P(=O)(O)c1ccccc1 (stereo not drawn) | > 100 µM | > 100 µM | > 100 µM | > 100 µM | > 100 µM | > 100 µM | > 100 µM | > 100 µM | > 100 µM | – | – | – | – | – | – | – | – | – |
| O=C(NC1CCCCC1)N1CCNC1=S | > 100 µM | > 100 µM | 7.09 µM | > 100 µM | > 100 µM | > 100 µM | > 100 µM | – | – | > 100 µM | – | – | – | – | – | – | – | – |
| OC[C@H](O)[C@@H](OCc1ccccc1)[C@H](NCc1ccccc1)c1cccs1 | > 100 µM | > 100 µM | > 100 µM | > 100 µM | > 100 µM | > 100 µM | – | > 100 µM | > 100 µM | > 100 µM | – | – | – | – | – | – | – | – |
| O=C(C#Cc1ccccc1)Nc1ccccc1CC(c1c[nH]c2ccccc12)c1c[nH]c2ccccc12 | – | > 100 µM | 51.9 µM | 44.2 µM | 31.8 µM | 26.5 µM | – | > 100 µM | – | 29.4 µM | – | – | – | – | – | – | – | – |
| COc1ccc(/C=N/NC(=O)NCCNCCO)cc1 | > 100 µM | > 100 µM | > 100 µM | > 100 µM | > 100 µM | > 100 µM | – | – | – | > 100 µM | – | – | – | – | – | – | – | – |
| CCCN1CCN(c2ccc3nc(-c4ccc5nc(-c6ccc(OCC)cc6)[nH]c5c4)[nH]c3c2)CC1 | 2.4 µM | – | 5.86 µM | – | 2.24 µM | 3.46 µM | 50.1 µM | – | – | – | 1.15 µM | 3.59 µM | 2.34 µM | 1.04 µM | 1.16 µM | – | – | – |
| CC(C)C(C=O)C(O)(C(F)(F)F)C(F)(F)F (stereo not drawn) | > 100 µM | – | > 100 µM | > 100 µM | > 100 µM | > 100 µM | > 100 µM | > 100 µM | > 100 µM | > 100 µM | – | – | – | – | – | – | – | – |
| O=[N+]([O-])c1cc(-c2ccc([As](=O)(O)O)cc2)ccc1[As](=O)(O)O | > 100 µM | > 100 µM | > 100 µM | – | > 100 µM | > 100 µM | > 100 µM | > 100 µM | > 100 µM | > 100 µM | – | – | – | – | – | – | – | – |
| CCc1cc2c(cc1O)CC[C@@H]1[C@@H]2CC[C@]2(C)[C@@H](O)CC[C@@H]12 | 22.9 µM | 19.8 µM | 25 µM | 31.9 µM | 20.4 µM | 27.3 µM | – | 19 µM | 37.3 µM | 17.8 µM | – | – | – | – | – | – | – | – |
| Cc1ccc2c(=O)cc(-c3ccccc3)[nH]c2n1 | > 100 µM | > 100 µM | > 100 µM | – | 18.7 µM | 2.94 µM | – | > 100 µM | 26.7 µM | > 86 µM | – | – | – | – | – | – | – | – |
| O=C(N/N=C/c1ccc(O)cc1)NNCCO | – | > 100 µM | > 100 µM | > 100 µM | > 100 µM | > 100 µM | > 100 µM | > 100 µM | > 100 µM | > 100 µM | – | – | – | – | – | – | – | – |
| CC(=O)O[C@H]1C(=O)[C@@]2(C)C(C(OC(=O)c3ccccc3)[C@]3(O)CC(OC(=O)C(O)C(NC(=O)c4cccc(Cl)c4)c4ccccc4)C(C)=C1C3(C)C)[C@]1(OC(C)=O)CO[C@@H]1C[C@@H]2O (stereo partly drawn) | > 10 µM | > 10 µM | > 10 µM | 4.58 µM | 6.22 µM | 3.83 µM | – | > 10 µM | > 10 µM | > 10 µM | – | – | – | – | – | – | – | – |
| CCN(CC)CCNC(=O)C1COc2ccc(-c3cc(=O)c4ccccc4o3)cc2O1 (stereo not drawn) | – | 47 µM | 38 µM | 34 µM | 35.9 µM | 32.5 µM | – | 59.9 µM | – | – | – | – | – | – | – | – | – | – |
| CCC(/C(=N/NC(=O)C[N+](C)(C)C)c1ccccc1)C1OC(=O)c2ccccc21 (stereo not drawn) | > 100 µM | > 100 µM | – | > 100 µM | > 100 µM | > 100 µM | – | > 100 µM | – | > 100 µM | – | – | – | – | – | – | – | – |
| CCCC(CCC(=O)O)(CCC(=O)O)[N+](=O)[O-] | > 100 µM | – | > 100 µM | > 100 µM | > 100 µM | > 100 µM | > 100 µM | > 100 µM | > 100 µM | > 100 µM | – | – | – | – | – | – | – | – |
| N#Cc1cc([N+](=O)[O-])ccc1NC(=O)C(=O)Nn1c(=S)[nH]c2ccccc2c1=O | – | > 100 µM | – | > 100 µM | > 100 µM | > 100 µM | – | > 100 µM | – | > 100 µM | – | – | – | – | – | – | – | – |
| C=c1c2ccccc2oc2nc3[nH]c(N)c(C#N)c(N)c3c(=N)c12 | > 100 µM | > 100 µM | 37.8 µM | > 100 µM | 57.2 µM | – | 86.2 µM | > 100 µM | 66.9 µM | > 100 µM | – | – | – | – | – | – | – | – |
| Cc1nc2cc3[nH]c4ccccc4c(=O)c3cc2s1 | > 100 µM | > 100 µM | > 100 µM | > 100 µM | > 100 µM | > 100 µM | – | > 100 µM | – | > 100 µM | – | – | – | – | – | – | – | – |
| CCOC(=O)C(NS(=O)(=O)c1ccccc1)(C(F)(F)F)P(=O)(OCC(C)C)OCC(C)C (stereo not drawn) | > 100 µM | > 100 µM | – | > 100 µM | > 100 µM | > 100 µM | > 100 µM | > 100 µM | > 100 µM | > 100 µM | – | – | – | – | – | – | – | – |
| Nc1nc2c(nnn2C2C=C(CO)C(O)C2O)c(=O)[nH]1 (stereo not drawn) | > 100 µM | > 100 µM | > 100 µM | > 100 µM | > 100 µM | > 100 µM | – | > 100 µM | – | > 100 µM | – | – | – | – | – | – | – | – |
| CCN1CC2(CO)CCC(OC)C34C5CC6C(OC)CC(O)(C5C6OC)C(O)(C(OC)C23)C14 (stereo not drawn) | – | > 375 µM | > 63.9 µM | > 375 µM | > 211 µM | > 375 µM | – | > 375 µM | – | – | – | – | – | – | – | – | – | – |
| CCOC(=O)/C(C(N)=O)=C(/O)c1cnccn1 | > 100 µM | – | > 100 µM | > 100 µM | > 100 µM | > 100 µM | > 100 µM | > 100 µM | > 100 µM | > 100 µM | – | – | – | – | – | – | – | – |
| COc1ccc(CNCCN2C(=O)c3ccc4c5c(ccc(c35)C2=O)C(=O)N(CCNCc2ccc(OC)c(OC)c2OC)C4=O)c(OC)c1OC | – | 1.08 µM | – | 0.168 µM | 1.09 µM | 1.19 µM | 2.81 µM | 4.13 µM | – | – | – | 0.985 µM | – | 0.48 µM | 0.519 µM | 0.429 µM | 0.248 µM | 0.0899 µM |
